Assay results from patent publication US10881679B2, “Application of a phillyrin/phillygeninin composition in preparing a medicine or health care product for alleviating or/and treating viral diseases, and medicine or health care product for treating viral diseases” (priority 2014, dated 2021).
Marks after values point to notes of the source that are not given here.

Legend:
[1] = test system: parainfluenza virus; assay type: in vivo, Kunming mice; conditions: 19.5 mg/kg/d i.g. 5 days
[2] = test system: respiratory syncytial virus (RSV); assay: Impact on virus-induced cytopathic effect in Vero cells (MTT): RSV; assay type: cell-based; conditions: RSV 100TCID50, Vero, 72 h; drug g/L as Table 1-2
[3] = test system: influenza virus; assay type: in vivo, Kunming mice; conditions: 19.5 mg/kg/d i.g. 5 days
[4] = test system: adenovirus (ADV); assay: Impact on virus-induced cytopathic effect in Vero cells (MTT): ADV; assay type: cell-based; conditions: ADV 100TCID50, Vero, 72 h; drug g/L as Table 1-2
[5] = test system: influenza virus; assay: Impact on virus-induced cytopathic effect in Vero cells (MTT): influenza virus; assay type: cell-based; conditions: influenza virus 100TCID50, Vero, 72 h; drug g/L (Table 1-2): phillyrin 0.01, Phillygeninin 0.02, compositions A, B 0.01, Ribavirin 0.70, oseltamivir phosphate 0.30
[6] = test system: influenza virus; assay type: in vivo, Kunming mice; conditions: 19.5 mg/kg/d i.g. 5 days; remark: listed apart in the source
[7] = test system: enterovirus EV71; assay: Impact on virus-induced cytopathic effect in Vero cells (MTT): EV71; assay type: cell-based; conditions: EV71 100TCID50, Vero, 72 h; drug g/L as Table 1-2
[8] = test system: Coxsackie virus B3 (CVB3); assay: Impact on virus-induced cytopathic effect in Vero cells (MTT): CVB3; assay type: cell-based; conditions: CVB3 100TCID50, Vero, 72 h; drug g/L as Table 1-2
[9] = test system: Herpes zoster simplex viruses type I (HSV-I); assay: Impact on virus-induced cytopathic effect in Vero cells (MTT): HSV-I; assay type: cell-based; conditions: HSV-I 100TCID50, Vero, 72 h; drug g/L as Table 1-2
[10] = test system: parainfluenza virus; assay type: in vivo, Kunming mice; conditions: 19.5 mg/kg/d i.g. 5 days; remark: listed apart in the source
[11] = test system: Vero cells; assay: Cytotoxicity test (MTT) on Vero cells; assay type: cell-based, African green monkey; conditions: 72 h
Experimental: Cytotoxicity test: the drugs were diluted according to the concentrations shown in table 1-1 for determination of cytotoxicity. […] In addition, 6 wells were set up as normal control group (without drugs) while another 6 pores as blank control group (medium only). Cells were grown in a 37° C. incubator under 5% CO2. […] After 72 h, 20 μL MTT solution (5 mg·mL^−1) was added into each well to continue incubation for 4 h. The culture medium in each well was sucked and discarded, 100 μL DMSO was added to each well. Then the culture was shaken for 5 min, measured OD value at 492 nm to calculate the cell survival ratio. The cell survival ratio was analyzed using a Probit regression model in SPSS 18.0 statistical software, and the maximal nontoxic concentration (TC0) and median toxic concentration (TC50) of drugs against Vero cells were calculated.

[12] = test system: parainfluenza virus; assay: Impact on virus-induced cytopathic effect in Vero cells (MTT): parainfluenza virus; assay type: cell-based; conditions: parainfluenza virus 100TCID50, Vero, 72 h; drug g/L as Table 1-2
[13] = test system: Coxsackievirus A16 (CoxA16); assay: Impact on virus-induced cytopathic effect in Vero cells (MTT): CoxA16; assay type: cell-based; conditions: CoxA16 100TCID50, Vero, 72 h; drug g/L as Table 1-2

CCOC(=O)C1=C[C@@H](OC(CC)CC)[C@H](NC(C)=O)[C@@H](N)C1 [oseltamivir phosphate]
Hemagglutination titer (InX) [1]: 22.05
Inhibition rate (%) of hemagglutination titer [1]: 33.40%
antiviral effective rate (ER %) [2]: 37.60%
Lung index [3]: 1.178 ± 0.066
Lung index inhibition rate [3]: 19.84
antiviral effective rate (ER %) [4]: 10.31%
antiviral effective rate (ER %) [5]: 81.76** %
Hemagglutination titer (InX) [6]: 20.50 ± 1.123
Inhibition rate (%) of hemagglutination titer [6]: 36.73%
antiviral effective rate (ER %) [7]: 51.86%
antiviral effective rate (ER %) [8]: 1.64%
antiviral effective rate (ER %) [9]: 66.56** %
Lung index [10]: 1.243 ± 0.054
Lung index inhibition rate [10]: 21.85
half toxic concentration (TC50) [11]: 832 µg/mL
maximal non-toxic concentration (TC0) [11]: 0.28 g/L
antiviral effective rate (ER %) [12]: 94.52** %
antiviral effective rate (ER %) [13]: 2.95%
